In article PMC7070694, “Identification of New Peptides from Fermented Milk Showing Antioxidant Properties: Mechanism of Action” (Antioxidants, 2020):
Peptide text beside a SMILES is read from it.

Legend:
[1] = tested on: Caco-2 cell monolayer; assay: Transepithelial transport through Caco-2 cell monolayers (Transwell); assay type: in vitro ADME; conditions: Caco-2 monolayer on Transwell, 21 days, TEER > 1100 Ω × cm^2, 75 µg peptide in 0.75 mL HBSS apical, 37 °C, RP-HPLC UV 220 nm, mean ± SD, n. d. = not detected with RP-HPLC; for RP-HPLC Estimation AP (%): 120 min after 30 min equilibration, apical compartment, % of total peptide added; for RP-HPLC Estimation BL (%): A-B, 120 min, basolateral compartment, % of initial peptide added apically
Method: Caco-2 cells were obtained from DISCOG (University of Padova, Padova, Italy). The cells cultured in DMEM (high glucose) supplemented with 10% FBS, were used between 35 and 60 passages. In order to perform transepithelial transport, 8 × 10^4 cells were seeded on Transwell^© cell culture inserts (0.4 µm pore sizes, 12 mm diameter, 1.12 cm^2 grown surface; Corning Life Sciences, Tewksbury, MA, USA). Cells were grown, differentiated for 21 days and the monolayer integrity was estimated by transepithelial electrical resistance (TEER) (Millicell® ERS-2 volt-ohmmeter, EDM Millipore, Darmstadt, Germany) showing values higher than 1100 Ω × cm^2.
The intestinal barrier crossing capacity of the fractions or synthetic peptides through Caco-2 cells monolayer was evaluated using Transwell® insert model according to Tonolo et al.. Briefly, after 21 days of culturing, Caco-2 cells differentiated forming a monolayer that delimited an upper part (apical compartment) and lower part (basolateral compartment). The monolayer was rinsed three times with Hank’s balanced salt solution (HBSS) and 10 mM D-glucose and equilibrated for 30 min at 37 °C. After, cells were incubated in the presence of 0.75 mL HBSS containing 150 µg fraction or 75 µg peptide in the apical chamber at 37 °C for 120 min. Samples collected from both compartments (apical and basolateral) at different times were centrifuged at 11,600× g, filtered with 0.45 µm filter, frozen and lyophilized. Subsequently, the obtained samples were dissolved in 100 µL of 0.1% TFA aqueous solution and evaluated by RP-HPLC and Matrix assisted laser desorption/ionization- time of flight/time of flight mass spectrometry (MALDI-TOF/TOF MS).
The apical and basolateral compartments were evaluated in RP-HPLC using a column Onyx Monolithic C18 100 mm × 4.6 mm, LC column (Phenomenex, Torrance, CA, USA) with a Waters 2695 Separation Module (Milfold, MA, USA) with a Waters 996 Photodiode Array Detector. Separations were performed with a linear gradient from 0–60% ACN in the presence of 0.1% TFA over 20 min at a constant flow rate of 2 mL/min monitoring the peaks by UV detection (λ = 220 nm).
Subsequently, the obtained fractions were analysed with a MALDI-TOF/TOF 4800 mass spectrometer (AB Sciex, Framingham, MA, USA). After an initial full MS scan, enlargements on the MS signals of interest were acquired. For the basolateral fractions, the samples, after lyophilisation, were dissolved in 50 µL of 25% ACN and 0.1% TFA. The analysis was then performed on 2 µL of these solutions mixed with 2 µL of peptide MALDI matrix α-cyano-4-hydroxycynnamic acid (10 mg/mL aqueous 70% acetonitrile/0.1% TFA). The following analytical conditions were set for MALDI-TOF spectra acquisition: positive ion reflector mode, initial mass range 500–3500 Da (the mass range was then adapted for each enlargement), variable laser intensity (3000–3800), shots/sub-spectrum 50, total shots/spectrum 1500 and accelerating voltage of 20 kV. Final data analysis and fragments identification were done on Data Explorer software (AB Sciex, Framingham, MA, USA), utilizing external mass calibration performed with mass peptide standards (Sigma-Aldrich, St Louis, MO, USA).
In order to evaluate the intestinal crossing capacity of the four peptides, Transwell® insert model peptide absorption, was performed. […] After 10 min and 120 min, apical and basolateral compartments were collected and analyzed by RP-HPLC and mass spectrometry.

[2] = MTT cell viability (cytotoxicity); assay type: cell-based; conditions: human, Caco-2 cells (1 × 10^4), synthetic peptides 0.05 mg/mL, no TbOOH, mean ± SD of at least three experiments, read-out: Percentage of Cell Viability, None (c)

SMILES	RP-HPLC Estimation AP (%) [1] [%]	RP-HPLC Estimation BL (%) [1] [%]	viability at 24 h, 50 µg/mL [2] [%]
CSCC[C@H](NC(=O)[C@@H](NC(=O)[C@@H](NC(=O)[C@@H]1CCCN1C(=O)[C@H](CCC(N)=O)NC(=O)[C@H](C)NC(=O)[C@H](CCC(N)=O)NC(=O)[C@H](CS)NC(=O)[C@H](CO)NC(=O)[C@H](CCCCN)NC(=O)[C@H](C)N)[C@@H](C)O)[C@@H](C)O)C(=O)O [A-11-M] (H-AKSCQAQPTTM-OH)	44.96 ± 9.09	0.16 ± 0.02	–
CC[C@H](C)[C@H](NC(=O)[C@@H]1CCCN1C(=O)[C@H](CC(N)=O)NC(=O)[C@@H]1CCCN1C(=O)[C@@H](NC(=O)[C@H](CC(=O)O)NC(=O)[C@H](CO)NC(=O)[C@H](Cc1ccccc1)NC(=O)[C@H](CO)NC(=O)[C@@H]1CCCN1C(=O)[C@H](C)N)[C@@H](C)CC)C(=O)NCC(=O)N[C@@H](CO)C(=O)N[C@@H](CCC(=O)O)C(=O)N[C@@H](CC(N)=O)C(=O)N[C@@H](CO)C(=O)O [A-16-S] (H-APSFSDIPNPIGSENS-OH)	3.22 ± 0.00	–	–
CC[C@H](C)[C@H](NC(=O)[C@@H]1CCCN1C(=O)[C@H](CC(N)=O)NC(=O)[C@@H]1CCCN1C(=O)[C@@H](NC(=O)[C@H](CC(=O)O)NC(=O)[C@H](CO)NC(=O)[C@H](Cc1ccccc1)NC(=O)[C@H](CO)NC(=O)[C@@H]1CCCN1C(=O)[C@H](C)N)[C@@H](C)CC)C(=O)NCC(=O)N[C@@H](CO)C(=O)N[C@@H](CCC(=O)O)C(=O)N[C@@H](CC(N)=O)C(=O)N[C@@H](CO)C(=O)N[C@@H](CCC(=O)O)C(=O)O [A-17-E] (H-APSFSDIPNPIGSENSE-OH)	68.4 ± 4.6	0.05 ± 0.03	108 ± 13.2
CC[C@H](C)[C@H](NC(=O)[C@H](CCCCN)NC(=O)[C@H](CC(=O)O)NC(=O)[C@H](CCC(N)=O)NC(=O)[C@H](CC(C)C)NC(=O)[C@H](CCC(=O)O)NC(=O)[C@@H](N)CC(=O)O)C(=O)N[C@@H](Cc1c[nH]cn1)C(=O)N1CCC[C@H]1C(=O)N[C@@H](Cc1ccccc1)C(=O)O [D-10-F] (H-DELQDKIHPF-OH)	4.17 ± 0.27	–	–
CC[C@H](C)[C@H](NC(=O)[C@H](CCCCN)NC(=O)[C@H](CC(=O)O)NC(=O)[C@H](CCC(N)=O)NC(=O)[C@H](CC(C)C)NC(=O)[C@H](CCC(=O)O)NC(=O)[C@H](CC(=O)O)NC(=O)[C@@H](N)CCC(=O)O)C(=O)N[C@@H](Cc1c[nH]cn1)C(=O)N1CCC[C@H]1C(=O)N[C@@H](Cc1ccccc1)C(=O)O [E-11-F] (H-EDELQDKIHPF-OH)	88.28 ± 5.89	0.21 ± 0.01	112 ± 13.5
CC[C@H](C)[C@H](NC(=O)[C@@H]1CCCN1C(=O)[C@H](CC(N)=O)NC(=O)[C@@H]1CCCN1C(=O)[C@@H](NC(=O)[C@H](CC(=O)O)NC(=O)[C@H](CO)NC(=O)[C@@H](N)Cc1ccccc1)[C@@H](C)CC)C(=O)NCC(=O)N[C@@H](CO)C(=O)N[C@@H](CCC(=O)O)C(=O)N[C@@H](CC(N)=O)C(=O)N[C@@H](CO)C(=O)N[C@@H](CCC(=O)O)C(=O)O [F-14-E] (H-FSDIPNPIGSENSE-OH)	3.07 ± 0.60	–	–
CC[C@H](C)[C@H](NC(=O)[C@@H]1CCCN1C(=O)CN)C(=O)N[C@H](C(=O)N[C@@H](CC(C)C)C(=O)N[C@@H](CC(N)=O)C(=O)N1CCC[C@H]1C(=O)N[C@@H](Cc1c[nH]c2ccccc12)C(=O)N[C@@H](CC(=O)O)C(=O)N[C@@H](CCC(N)=O)C(=O)N[C@H](C(=O)N[C@@H](CCCCN)C(=O)N[C@@H](CCCNC(=N)N)C(=O)O)C(C)C)C(C)C [G-13-R] (H-GPIVLNPWDQVKR-OH)	3.19 ± 0.27	–	–
CC[C@H](C)[C@H](N)C(=O)N[C@H](C(=O)N[C@@H](CC(C)C)C(=O)N[C@@H](CC(N)=O)C(=O)N1CCC[C@H]1C(=O)N[C@@H](Cc1c[nH]c2ccccc12)C(=O)N[C@@H](CC(=O)O)C(=O)N[C@@H](CCC(N)=O)C(=O)N[C@H](C(=O)N[C@@H](CCCCN)C(=O)N[C@@H](CCCNC(=N)N)C(=O)O)C(C)C)C(C)C [I-11-R] (H-IVLNPWDQVKR-OH)	1.47 ± 0.19	–	–
CC(C)[C@H](NC(=O)[C@H](CCC(N)=O)NC(=O)[C@H](CC(=O)O)NC(=O)[C@H](Cc1c[nH]c2ccccc12)NC(=O)[C@@H]1CCCN1C(=O)[C@@H](N)CC(N)=O)C(=O)N[C@@H](CCCCN)C(=O)N[C@@H](CCCNC(=N)N)C(=O)O [N-8-R] (H-NPWDQVKR-OH)	0.55 ± 0.15	–	–
CSCC[C@H](NC(=O)[C@@H](NC(=O)[C@@H](NC(=O)[C@@H]1CCCN1C(=O)[C@H](CCC(N)=O)NC(=O)[C@H](C)NC(=O)[C@H](CCC(N)=O)NC(=O)[C@H](CS)NC(=O)[C@H](CO)NC(=O)[C@H](CCCCN)NC(=O)[C@H](C)NC(=O)[C@@H]1CCCN1C(=O)[C@@H](NC(=O)[C@@H](NC(=O)[C@@H](N)CC(N)=O)[C@@H](C)O)C(C)C)[C@@H](C)O)[C@@H](C)O)C(=O)O [N-15-M] (H-NTVPAKSCQAQPTTM-OH)	60.76 ± 8.83	0.13 ± 0.04	108 ± 5.96
CC[C@H](C)[C@H](NC(=O)[C@@H]1CCCN1C(=O)CNC(=O)[C@@H](N)CCC(N)=O)C(=O)N[C@H](C(=O)N[C@@H](CC(C)C)C(=O)N[C@@H](CC(N)=O)C(=O)N1CCC[C@H]1C(=O)N[C@@H](Cc1c[nH]c2ccccc12)C(=O)N[C@@H](CC(=O)O)C(=O)N[C@@H](CCC(N)=O)C(=O)O)C(C)C [Q-11-Q] (H-QGPIVLNPWDQ-OH)	–	0.11 ± 0.01	–
CC[C@H](C)[C@H](NC(=O)[C@@H]1CCCN1C(=O)CNC(=O)[C@@H](N)CCC(N)=O)C(=O)N[C@H](C(=O)N[C@@H](CC(C)C)C(=O)N[C@@H](CC(N)=O)C(=O)N1CCC[C@H]1C(=O)N[C@@H](Cc1c[nH]c2ccccc12)C(=O)N[C@@H](CC(=O)O)C(=O)N[C@@H](CCC(N)=O)C(=O)N[C@H](C(=O)N[C@@H](CCCCN)C(=O)O)C(C)C)C(C)C [Q-13-K] (H-QGPIVLNPWDQVK-OH)	–	0.07 ± 0.05	–
CSCC[C@H](NC(=O)[C@@H](NC(=O)[C@@H](NC(=O)[C@@H]1CCCN1C(=O)[C@H](CCC(N)=O)NC(=O)[C@H](C)NC(=O)[C@H](CCC(N)=O)NC(=O)[C@H](CS)NC(=O)[C@@H](N)CO)[C@@H](C)O)[C@@H](C)O)C(=O)O [S-9-M] (H-SCQAQPTTM-OH)	–	0.12 ± 0.03	–
CC[C@H](C)[C@H](NC(=O)[C@@H]1CCCN1C(=O)[C@H](CC(N)=O)NC(=O)[C@@H]1CCCN1C(=O)[C@@H](NC(=O)[C@H](CC(=O)O)NC(=O)[C@H](CO)NC(=O)[C@H](Cc1ccccc1)NC(=O)[C@@H](N)CO)[C@@H](C)CC)C(=O)NCC(=O)N[C@@H](CO)C(=O)N[C@@H](CCC(=O)O)C(=O)N[C@@H](CC(N)=O)C(=O)N[C@@H](CO)C(=O)N[C@@H](CCC(=O)O)C(=O)O [S-15-E] (H-SFSDIPNPIGSENSE-OH)	8.97 ± 0.53	0.30 ± 0.07	–
CSCC[C@H](NC(=O)[C@@H](NC(=O)[C@@H](NC(=O)[C@@H]1CCCN1C(=O)[C@H](CCC(N)=O)NC(=O)[C@H](C)NC(=O)[C@H](CCC(N)=O)NC(=O)[C@H](CS)NC(=O)[C@H](CO)NC(=O)[C@H](CCCCN)NC(=O)[C@H](C)NC(=O)[C@@H]1CCCN1C(=O)[C@@H](N)C(C)C)[C@@H](C)O)[C@@H](C)O)C(=O)O [V-13-M] (H-VPAKSCQAQPTTM-OH)	2.21 ± 0.53	–	–
